From article PMC9372421 (Clinical and Translational Science, 2022)
Converted amounts (≈) assume the structure as drawn. “And” between values parts separate entries of the source, which are not always exact repeats. Identical values can stand only once. Like-named read-outs stand apart in the source and are kept apart here.

Experiments:
[1] = target: T1, human NaV1.5 sodium channel (Homo sapiens, UniProt Q14524); assay type: cell-based
[2] = target: T1, human NaV1.5 sodium channel
[3] = target: T1, human NaV1.5 sodium channel; remark: listed apart in the source
[4] = target: T1, human NaV1.5 sodium channel; remark: listed apart in the source
[5] = human, in vivo
[6] = human, in vivo; remark: listed apart in the source
[7] = tested on: canine purkinje fibers; conditions: 30 μM; historical nonclinical assessment, data not reported; cited from earlier work
[8] = target: T1, human NaV1.5 sodium channel; test: cell-based; conditions: IC50 block of peak NaV1.5 current, HEK293, mean ± SEM
[9] = target: T1, human NaV1.5 sodium channel; test: cell-based; conditions: IC50 block of late NaV1.5 current, mean ± SEM
[10] = healthy subjects; cited from earlier work
[11] = tested on: hERG potassium channel; conditions: cited from earlier work
[12] = lamotrigine containing regimens vs. no ASMs, cited from earlier work
[13] = lamotrigine 15 μg/ml; cited from earlier work
[14] = cited from earlier work
[15] = each drug at or near its IC50, V hold = −120 mV
[16] = each drug at or near its IC50, lamotrigine 280 µM, V hold = −120 mV
[17] = each drug at or near its IC50, lamotrigine 280 μM, mean ± SEM

T1 sequence (Q14524 whole entry): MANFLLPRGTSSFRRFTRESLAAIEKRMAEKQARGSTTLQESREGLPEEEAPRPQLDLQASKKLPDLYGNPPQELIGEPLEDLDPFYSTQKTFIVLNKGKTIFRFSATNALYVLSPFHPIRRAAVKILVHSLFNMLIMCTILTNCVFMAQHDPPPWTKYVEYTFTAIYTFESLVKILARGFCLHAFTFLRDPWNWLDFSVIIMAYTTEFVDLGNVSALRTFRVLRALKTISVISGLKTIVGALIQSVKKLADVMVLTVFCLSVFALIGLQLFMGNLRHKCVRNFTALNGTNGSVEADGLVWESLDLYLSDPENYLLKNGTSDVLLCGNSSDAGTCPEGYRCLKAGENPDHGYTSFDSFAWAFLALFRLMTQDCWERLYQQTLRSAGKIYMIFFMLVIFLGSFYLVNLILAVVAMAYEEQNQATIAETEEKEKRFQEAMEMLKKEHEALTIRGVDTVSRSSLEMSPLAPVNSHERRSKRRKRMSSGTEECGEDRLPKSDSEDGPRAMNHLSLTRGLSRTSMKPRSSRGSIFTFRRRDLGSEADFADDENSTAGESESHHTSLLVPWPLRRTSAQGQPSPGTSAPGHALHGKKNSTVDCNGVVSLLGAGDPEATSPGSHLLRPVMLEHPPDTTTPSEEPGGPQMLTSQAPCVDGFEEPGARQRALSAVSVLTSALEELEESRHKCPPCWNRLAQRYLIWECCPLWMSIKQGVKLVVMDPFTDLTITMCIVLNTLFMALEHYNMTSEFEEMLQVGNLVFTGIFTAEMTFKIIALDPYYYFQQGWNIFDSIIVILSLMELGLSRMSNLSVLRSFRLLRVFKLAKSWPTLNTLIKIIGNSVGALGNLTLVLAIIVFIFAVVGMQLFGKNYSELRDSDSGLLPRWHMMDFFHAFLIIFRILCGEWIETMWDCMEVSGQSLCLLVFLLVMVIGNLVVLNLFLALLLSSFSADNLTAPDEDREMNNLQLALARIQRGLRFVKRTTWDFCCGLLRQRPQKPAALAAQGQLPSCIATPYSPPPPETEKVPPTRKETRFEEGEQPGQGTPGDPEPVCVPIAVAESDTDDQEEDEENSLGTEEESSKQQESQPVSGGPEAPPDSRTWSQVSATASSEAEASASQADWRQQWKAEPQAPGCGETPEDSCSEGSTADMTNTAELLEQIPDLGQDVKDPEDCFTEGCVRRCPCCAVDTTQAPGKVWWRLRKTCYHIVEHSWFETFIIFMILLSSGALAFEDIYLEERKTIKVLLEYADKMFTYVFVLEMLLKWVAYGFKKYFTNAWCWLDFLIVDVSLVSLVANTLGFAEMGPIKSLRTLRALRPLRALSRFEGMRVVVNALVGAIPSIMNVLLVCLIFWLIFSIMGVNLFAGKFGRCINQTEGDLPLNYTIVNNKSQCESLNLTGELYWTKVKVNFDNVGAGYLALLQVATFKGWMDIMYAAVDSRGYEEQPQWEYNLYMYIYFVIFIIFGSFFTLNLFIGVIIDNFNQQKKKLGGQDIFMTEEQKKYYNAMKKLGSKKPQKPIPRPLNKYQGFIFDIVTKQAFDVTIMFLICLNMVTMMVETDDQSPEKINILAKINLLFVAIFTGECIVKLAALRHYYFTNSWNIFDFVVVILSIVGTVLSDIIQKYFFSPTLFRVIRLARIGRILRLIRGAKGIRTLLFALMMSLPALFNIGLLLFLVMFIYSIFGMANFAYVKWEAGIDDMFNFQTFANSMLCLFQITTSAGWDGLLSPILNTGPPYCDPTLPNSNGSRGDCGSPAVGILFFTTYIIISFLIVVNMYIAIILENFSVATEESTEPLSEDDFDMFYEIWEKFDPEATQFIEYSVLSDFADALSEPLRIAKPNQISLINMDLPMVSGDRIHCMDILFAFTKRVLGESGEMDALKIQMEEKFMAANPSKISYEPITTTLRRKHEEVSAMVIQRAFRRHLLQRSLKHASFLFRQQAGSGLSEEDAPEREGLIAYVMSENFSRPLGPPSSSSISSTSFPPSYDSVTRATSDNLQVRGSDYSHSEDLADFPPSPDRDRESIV

Structure (SMILES): O=C(NCC1CCCCN1)c1cc(OCC(F)(F)F)ccc1OCC(F)(F)F (centres unmarked) [flecainide]
- τon contribution by the slow component of the exponential [1, 15]: 45.1%
- τon Percent Fast [1, 16]: 54.9%
- Tonic block of NaV1.5, percent inhibition [2, 17]: 1.6 ± 1.2%

Structure (SMILES): Nc1nnc(-c2cccc(Cl)c2Cl)c(N)n1 [lamotrigine, Lamotrigine]
- τon fast component, fold of mexiletine [1]: ≤ 1.6 fold
- τon Percent Fast [1, 16]: > 92%
- % block at 200th pulse ([1]; lamotrigine 25 µM, V hold = −120 mV): 25.5 ± 1.5% and 26%
- τon fast component, fold faster than flecainide ([1]; lamotrigine versus flecainide): 8.4 fold
- τon fast component, fold faster than quinidine ([1]; lamotrigine versus quinidine): 4.7 fold
- fold difference in potency at a depolarized potential [3]: 10 fold
- Tonic block of NaV1.5, percent inhibition [2, 17]: 26.8 ± 1.4%
- Tonic block of NaV1.5, percent inhibition ([2]; lamotrigine 25 μM, mean ± SEM): 2.6 ± 2.1%
- recovery from block, rate fold faster than quinidine [4]: 1.4 fold
- off-rate kinetics fold faster than flecainide ([4]; high concentration of lamotrigine): > 86 fold
- τoff slow component, fold faster than quinidine's slow time constant ([4]; lamotrigine 25 μM): 2.4 fold
- τoff Percent Fast ([4]; lamotrigine 25 µM, −120 mV): 58.0%
- τoff Tau fast ([4]; lamotrigine 25 µM, −120 mV): 0.8 ± 0.1 s
- τoff Tau slow ([4]; lamotrigine 25 µM, −120 mV): 15.6 ± 5.0 s
- expected increase in PR interval (absolute values) (at 15 μg/ml, healthy subjects, outlier included): 18.15 ms
- decrease in QRS interval (absolute values) (at 15 μg/ml, outlier included): 5.94 ms
- expected PR prolongation relative to baseline (at ~20 μg/ml, highest peak concentrations reported in patients): 8.24 ms
- increase in PR interval as change from baseline (healthy subjects, outlier included): up to 6.18 ms
- mean PR interval (human, in vivo): 169 ms
- slope in PR change from baseline per μg/ml of lamotrigine (outlier included): 0.412 ms/µg/mL
- subjects with QRS interval >120 ms while on lamotrigine (outlier included): None
- free concentration [5]: 6600 ng/mL
- peak unbound concentration [5]: 3.15 to 24.5 µM
- safety reports relating to the circulatory system [6]: 1483 reports
- safety reports relating to the circulatory system, share of all reports [6]: 0.021%
- inhibition of action potential upstroke (dV/dt) [7]: < 10%
- IC50 ([8]; V hold = −95 mV, 0.1 Hz): 28.8 µM and 28.9 µM
- IC50 ([8]; V hold = −120 mV): 280 µM
- IC50 ([9]; ramp epoch): 12.1 µM
- IC50 ([9]; −15 mV epoch): 17.2 µM
- QTc interval, QRS duration, or blood pressure [10]: no increase
- QTcF [10]: small reductions
- heart rate and mean PR interval [10]: small increases
- IC50 [11]: 229 µM
- potency (IC50) to block the hERG potassium channel [11]: 58.6 µg/mL (≈ 229 µM)
- SUDEP odds ratio (OR) ([12]; 95% CI: 0.31–0.97): 0.55
- reduction in SUDEP risk [12]: 45%
- percent of the maximum effect of flecainide [13]: ~ 29%
- concentrations expected in over 95% of patients [14]: below 15 μg/ml
- highest values for peak concentrations reported in patients [14]: ~ 20 μg/ml

Structure (SMILES): Cc1cccc(C)c1OCC(C)N (centres unmarked) [mexiletine]
- τon Percent Fast [1]: 92.9% and > 92%
- Tonic block of NaV1.5, percent inhibition ([2]; human): 9.2 ± 1.5%
- τoff Percent Fast [4]: 83.2%
- τoff Tau fast [4]: 0.8 ± 0.03 s

Structure (SMILES): C=C[C@H]1C[N@@]2CC[C@H]1C[C@@H]2[C@@H](O)c1ccnc2ccc(OC)cc12 [quinidine]
- τon contribution by the slow component of the exponential [1, 15]: 26.1%
- Tonic block of NaV1.5, percent inhibition [2, 17]: 6.7 ± 1.2%
- τoff Tau slow ([4]; each drug at or near its IC50, −120 mV): 37.7 ± 5.9 s
